From patent US10266526B2, “Substituted 1,2,3-triazoles as SMYD inhibitors for treating cancer” (EPIZYME, INC., priority 2014, dated 2019)

What follows are molecules tested against SMYD2 (Homo sapiens (Human), UniProt Q9NRG4) (assay: SMYD2 biochemical assay (SMYD2 enzyme assay on peptide substrate, 3H-SAM Flashplate)). Details: not given.
Sequence of SMYD2 (Q9NRG4 whole entry): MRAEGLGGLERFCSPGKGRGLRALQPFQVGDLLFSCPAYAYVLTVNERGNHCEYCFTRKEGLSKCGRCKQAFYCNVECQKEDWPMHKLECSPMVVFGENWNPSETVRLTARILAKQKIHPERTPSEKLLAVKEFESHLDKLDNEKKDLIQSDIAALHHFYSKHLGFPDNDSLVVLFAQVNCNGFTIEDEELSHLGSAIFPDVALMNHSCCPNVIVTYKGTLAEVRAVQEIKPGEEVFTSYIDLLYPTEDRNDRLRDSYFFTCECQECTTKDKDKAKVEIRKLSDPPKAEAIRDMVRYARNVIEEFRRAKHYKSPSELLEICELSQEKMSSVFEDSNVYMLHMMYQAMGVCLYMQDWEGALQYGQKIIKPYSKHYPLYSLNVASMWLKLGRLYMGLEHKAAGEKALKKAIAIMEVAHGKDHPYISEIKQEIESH

| IC50 | SMILES |
| --- | --- |
| 910 nM | C[C@@H](c1ccccc1)N1C[C@@H](NC(=O)c2cn(C3CC3)nn2)C1(C)C (racemic) [compound 1026, rac-1-cyclopropyl-N-((R)-2,2-dimethyl-1-((S)-1-phenylethyl)azetidin-3-yl)-1H-1,2,3-triazole-4-carboxamide] |

Same assay, conditions: read-out: SMYD2 Biochem IC50; IC50 values are an average of n = 1 to n = 50

| SMILES | IC50 |
| --- | --- |
| CC(C)N1CC(NC(=O)c2cn(C3CC3)cn2)C1 [compound 919, 1-cyclopropyl-N-(1-isopropylazetidin-3-yl)-1H-imidazole-4-carboxamide] | 4600 nM |
| CC(c1ccc(-n2ccnc2)cc1)N1CC(NC(=O)c2cn(C3CC3)nn2)C1 (stereo not shown) [compound 797, 1-cyclopropyl-N-(1-{1-[4-(1H-imidazol-1-yl)phenyl]ethyl}azetidin-3-yl)-1H-1,2,3-triazole-4-carboxamide] | 1570 nM |
| CC(c1ccc2[nH]nc(-c3ccccc3Cl)c2c1)N1CC(NC(=O)c2cn(C3CC3)nn2)C1 (stereo not shown) [compound 920, N-(1-(1-(3-(2-chlorophenyl)-1H-indazol-5-yl)ethyl)azetidin-3-yl)-1-cyclopropyl-1H-1,2,3-triazole-4-carboxamide] | > 50000 nM |
| CNC1CCCC(C(=O)Nc2cc(O)c3c(c2)OCC(=O)N3)C1 (stereo not shown) [compound 820, N-(5-hydroxy-3-oxo-3,4-dihydro-2H-1,4-benzoxazin-7-yl)-3-(methylamino)cyclohexane-1-carboxamide] | > 50000 nM |
| Cn1cnc(CN2CC(NC(=O)c3cn(C4CC4)nn3)C2)c1Cl [compound 784, N-{1-[(5-chloro-1-methyl-1H-imidazol-4-yl)methyl]azetidin-3-yl}-1-cyclopropyl-1H-1,2,3-triazole-4-carboxamide] | 21000 nM |
| CC(c1cccc(OCCN)c1Cl)N1CC(NC(=O)c2cn(C3CC3)nn2)C1 (stereo not shown) [compound 1009, N-(1-(1-(3-(2-aminoethoxy)-2-chlorophenyl)ethyl)azetidin-3-yl)-1-cyclopropyl-1H-1,2,3-triazole-4-carboxamide] | 5700 nM |
| Cn1cc(COc2ccc(CN3CC(NC(=O)c4cn(C5CC5)nn4)C3)cc2)cn1 [compound 1025, 1-cyclopropyl-N-(1-(4-((1-methyl-1H-pyrazol-4-yl)methoxy)benzyl)azetidin-3-yl)-1H-1,2,3-triazole-4-carboxamide] | 1200 nM |
| CN1[C@@H]2CC[C@H]1C[C@@H](NC(=O)c1cc(C3CC3)cnn1)C2 [compound 1024, 5-cyclopropyl-N-((1R,3r,5S)-8-methyl-8-azabicyclo[3.2.1]octan-3-yl)pyridazine-3-carboxamide] | > 50000 nM |
| CC(c1cc(F)cc(Cl)c1)N1CC(NC(=O)c2cn(C3CC3)nn2)C1 (stereo not shown) [compound 714, N-{1-[1-(3-chloro-5-fluorophenyl)ethyl]azetidin-3-yl}-1-cyclopropyl-1H-1,2,3-triazole-4-carboxamide] | 2130 nM |
| O=C(NC1CN(Cc2ccc(Cn3cccn3)cc2)C1)c1cn(C2CC2)nn1 [compound 953, N-(1-(4-((1H-pyrazol-1-yl)methyl)benzyl)azetidin-3-yl)-1-cyclopropyl-1H-1,2,3-triazole-4-carboxamide] | 5600 nM |
| CN1CCC(NC(=O)c2cc(C3CC3)cnn2)CC1 [compound 917, 5-cyclopropyl-N-(1-methylpiperidin-4-yl)pyridazine-3-carboxamide] | > 50000 nM |
| COc1ccc2c(c1Cl)CCC2N1CC(NC(=O)c2cn(C3CC3)nn2)C1 (stereo not shown) [compound 713, N-[1-(4-chloro-5-methoxy-2,3-dihydro-1H-inden-1-yl)azetidin-3-yl]-1-cyclopropyl-1H-1,2,3-triazole-4-carboxamide] | 12900 nM |
| CN(C)CCCNC(=O)c1cc(C2CC2)cnn1 [compound 867, 5-cyclopropyl-N-[3-(dimethylamino)propyl]pyridazine-3-carboxamide] | > 50000 nM |
| CNCCOc1cccc(C(C)N2CC(NC(=O)c3cn(C4CC4)nn3)C2)c1 (stereo not shown) [compound 705, 1-cyclopropyl-N-[1-(1-{3-[2-(methylamino)ethoxy]phenyl}ethyl)azetidin-3-yl]-1H-1,2,3-triazole-4-carboxamide] | 2040 nM |
| O=C(NC1CN(Cc2cnn(CC3CC3)c2)C1)c1cn(C2CC2)nn1 [compound 1006, 1-cyclopropyl-N-(1-((1-(cyclopropylmethyl)-1H-pyrazol-4-yl)methyl)azetidin-3-yl)-1H-1,2,3-triazole-4-carboxamide] | 1700 nM |
| CC(c1ccc(OCC(C)(C)C)cc1)N1CC(NC(=O)c2cn(C3CC3)nn2)C1 (stereo not shown) [compound 864, 1-cyclopropyl-N-(1-{1-[4-(2,2-dimethylpropoxy)phenyl]ethyl}azetidin-3-yl)-1H-1,2,3-triazole-4-carboxamide] | 3140 nM |

Other lines, results leading:

| IC50 | SMILES |
| --- | --- |
| 1010 nM | CCC(c1cccc(F)c1)N1CC(NC(=O)c2cn(C3CC3)nn2)C1 (stereo not shown) [compound 711, 1-cyclopropyl-N-{1-[1-(3-fluorophenyl)propyl]azetidin-3-yl}-1H-1,2,3-triazole-4-carboxamide] |
| 846 nM | CC(C)N1CC(NC(=O)c2cn(C3CC3)nn2)C1 [compound 662, 1-cyclopropyl-N-[1-(propan-2-yl)azetidin-3-yl]-1H-1,2,3-triazole-4-carboxamide] |
| 729 nM | C[C@@H](c1ccccc1)N1CC(NC(=O)c2ncc(C3CC3)[nH]2)C1 [compound 914, 5-cyclopropyl-N-{1-[(1S)-1-phenylethyl]azetidin-3-yl}-1H-imidazole-2-carboxamide] |
| 690 nM | COc1cccc(C(C)N2CC(NC(=O)c3cc(C4CC4)cnn3)C2)c1 (stereo not shown) [compound 934, 5-cyclopropyl-N-(1-(1-(3-methoxyphenyl)ethyl)azetidin-3-yl)pyridazine-3-carboxamide] |
| 610 nM | Cn1cc(COc2ccc(CN3CC(NC(=O)c4cc(C5CC5)cnn4)C3)cc2)cn1 [compound 928, 5-cyclopropyl-N-(1-(4-((1-methyl-1H-pyrazol-4-yl)methoxy)benzyl)azetidin-3-yl)pyridazine-3-carboxamide] |
| 480 nM | CC(c1cc(Cl)ccc1Cl)N1CC(NC(=O)c2cc(C3CC3)ccn2)C1 (stereo not shown) [compound 962, 4-cyclopropyl-N-(1-(1-(2,5-dichlorophenyl)ethyl)azetidin-3-yl)picolinamide] |
| 176 nM | CC(c1ccc(OCc2ccccc2)cc1)N1CC(NC(=O)c2cn(C3CC3)nn2)C1 (stereo not shown) [compound 693, N-(1-{1-[4-(benzyloxy)phenyl]ethyl}azetidin-3-yl)-1-cyclopropyl-1H-1,2,3-triazole-4-carboxamide] |
| 140 nM | CC(c1cc(Cl)ccc1Cl)N1CC(NC(=O)c2cc(C3CC3)cnn2)C1 (stereo not shown) [compound 649, 5-cyclopropyl-N-{1-[1-(2,5-dichlorophenyl)ethyl]azetidin-3-yl}pyridazine-3-carboxamide] |
| 102 nM | CC(c1ccc(OCc2ccccc2)cc1Cl)N1CC(NC(=O)c2cn(C3CC3)nn2)C1 (stereo not shown) [compound 817, N-(1-{1-[4-(benzyloxy)-2-chlorophenyl]ethyl}azetidin-3-yl)-1-cyclopropyl-1H-1,2,3-triazole-4-carboxamide] |
| 49.4 nM | CC(c1cccc(OCCO)c1Cl)N1CC(NC(=O)c2cn(C3CC3)nn2)C1 (stereo not shown) [compound 775, N-(1-{1-[2-chloro-3-(2-hydroxyethoxy)phenyl]ethyl}azetidin-3-yl)-1-cyclopropyl-1H-1,2,3-triazole-4-carboxamide] |
| 22 nM | O=C(NC1CN(Cc2cnn(Cc3ccc(F)cc3)c2)C1)c1cn(C2CC2)nn1 [compound 951, 1-cyclopropyl-N-(1-((1-(4-fluorobenzyl)-1H-pyrazol-4-yl)methyl)azetidin-3-yl)-1H-1,2,3-triazole-4-carboxamide] |
